Results reported in patent US20240408216A1, “PROTEIN INHIBITOR OR DEGRADING AGENT, PHARMACEUTICAL COMPOSITION CONTAINING SAME AND PHARMACEUTICAL USE” (JING MEDICINE TECHNOLOGY (SHANGHAI) LTD., priority 2021, published 2024).
pIC50: −log10 of the molar value.

Columns and labels:
BaF3 (EGFR WT) = experiment: Cell proliferation IC50 assay (Cell Titer GLO), BaF3 WT cells; type: cell-based; conditions: Mus musculus, Ba/F3 EGFR, Table 6, 10 ng/ml EGF, 72 h
Procedure: (§1) IC50 of compounds in the present invention was determined by Cell Titer GLO reagent from Promega. The procedures are as follows:
(§2) Tumor cells were cultured in specified medium in an incubator at 37° C. and 5% CO2. The cells were passaged periodically. Cells at the logarithmic growth phase were collected for plating at a density of 2000-4000 cells/well. The next day, the compounds of the present invention were serially diluted and added to the cells, with DMSO being the negative control and the culture media without cells being the blank control. The plate was incubated in the incubator for 72 h. The cell viability assay was performed by adding the detection reagents to the cell culture media according to Cell Titer GLO reagent instructions and detecting luminescent signals on an EnVision microplate reader (PerkinElmer).
(§3) Inhibition of cell growth by the compounds of the present invention was plotted by Prism Graphpad software for statistically calculating the IC50 of the compound of the present invention.

A431 = experiment: Cell proliferation IC50 assay (Cell Titer GLO), A431 cells; type: cell-based; conditions: Homo sapiens, A-431; Table 6; A431, 72 h; read-out: A431 IC50
Procedure: as §1, §2, §3

BaF3 (EGFR Del19/C797S) = molecular target: T1, BaF3 (EGFR Del19/C797S) (Homo sapiens, UniProt P00533, C797S, cells depend on it, form not given); experiment: Cell proliferation IC50 assay (Cell Titer GLO), BaF3 DC cells; type: cell-based, mouse; conditions: Table 6, 72 h
T1 construct: BaF3 (EGFR Del19/C797S)|DC|RPMI1640 + 10% FBS
T1 sequence (P00533 with tags, fused parts or gaps DEL746-750/C797S, form open): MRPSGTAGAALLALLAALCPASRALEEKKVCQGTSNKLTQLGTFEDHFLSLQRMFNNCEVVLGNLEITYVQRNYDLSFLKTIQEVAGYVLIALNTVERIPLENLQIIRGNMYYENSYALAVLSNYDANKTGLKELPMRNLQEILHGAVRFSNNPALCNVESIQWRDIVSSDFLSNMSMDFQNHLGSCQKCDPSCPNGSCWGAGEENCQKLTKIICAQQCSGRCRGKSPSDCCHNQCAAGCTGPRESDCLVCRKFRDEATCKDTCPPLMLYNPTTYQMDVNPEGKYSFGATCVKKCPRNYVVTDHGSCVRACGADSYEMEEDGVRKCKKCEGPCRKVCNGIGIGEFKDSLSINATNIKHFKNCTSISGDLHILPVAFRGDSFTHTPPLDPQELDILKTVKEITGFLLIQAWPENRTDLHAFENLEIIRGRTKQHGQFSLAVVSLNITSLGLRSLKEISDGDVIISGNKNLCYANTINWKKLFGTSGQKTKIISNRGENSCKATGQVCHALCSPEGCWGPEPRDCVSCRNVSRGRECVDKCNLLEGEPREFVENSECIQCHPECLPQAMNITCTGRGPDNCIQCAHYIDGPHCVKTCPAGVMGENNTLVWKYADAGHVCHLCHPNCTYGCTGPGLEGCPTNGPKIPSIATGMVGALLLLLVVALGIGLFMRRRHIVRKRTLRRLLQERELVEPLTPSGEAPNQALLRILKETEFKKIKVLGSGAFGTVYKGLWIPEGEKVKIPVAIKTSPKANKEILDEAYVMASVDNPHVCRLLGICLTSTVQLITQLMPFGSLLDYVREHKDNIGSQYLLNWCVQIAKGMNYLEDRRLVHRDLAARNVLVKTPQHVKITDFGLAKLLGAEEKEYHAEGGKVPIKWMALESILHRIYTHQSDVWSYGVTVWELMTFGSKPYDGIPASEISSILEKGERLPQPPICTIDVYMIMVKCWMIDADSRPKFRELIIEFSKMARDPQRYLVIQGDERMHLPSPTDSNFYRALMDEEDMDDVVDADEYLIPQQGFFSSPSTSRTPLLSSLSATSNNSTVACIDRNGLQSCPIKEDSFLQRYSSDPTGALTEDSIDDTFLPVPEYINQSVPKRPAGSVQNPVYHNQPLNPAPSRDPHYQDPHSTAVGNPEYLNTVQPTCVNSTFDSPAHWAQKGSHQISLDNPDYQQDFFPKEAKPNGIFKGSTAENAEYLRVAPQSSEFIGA
Procedure: as §1, §2, §3

[1] = tested on: BaF3 (EGFR L858R/T790M/C797S); experiment: Cell proliferation IC50 assay (Cell Titer GLO), BaF3 LTC cells; type: cell-based; conditions: Mus musculus, Ba/F3 EGFR, Table 6, 72 h
Procedure: as §1, §2, §3

Row | SMILES | pIC50 (BaF3 (EGFR WT)) | pIC50 (A431) | pIC50 (BaF3 (EGFR Del19/C797S)) | pIC50 [1]
1 | CCc1cc(Nc2ncc(Cl)c(Nc3ccccc3P(C)(C)=O)n2)c(OC)cc1N1CCC(N2CCc3ccc(Oc4cccc5c4CN(C4CCC(=O)NC4=O)C5=O)cc3CC2)CC1 (stereo not shown) [Example E34] | 5.90 | 5.83 | 8.60 | 7.77
2 | CCc1cc(Nc2ncc(Cl)c(Nc3ccccc3P(C)(C)=O)n2)c(OC)cc1N1CCC(N2CCN(CCCCCc3cccc4c3CN(C3CCC(=O)NC3=O)C4=O)CC2)CC1 (stereo not shown) [Example E39] | 6.60 | 6.03 | 8.38 | 7.72
3 | CCc1cc(Nc2ncc(Cl)c(Nc3ccccc3P(C)(C)=O)n2)c(OC)nc1N1CCC(N2CCN(CCC#Cc3cccc4c3CN(C3CCC(=O)NC3=O)C4=O)CC2)CC1 (stereo not shown) [Example E41] | ≤ 5.98 | 5.65 | 8.09 | 7.35
4 | CCc1cc(Nc2ncc(Cl)c(Nc3ccccc3N(C)S(C)(=O)=O)n2)c(OC)cc1N1CCC(N2CCN(CCC#Cc3cccc4c3CN(C3CCC(=O)NC3=O)C4=O)CC2)CC1 (stereo not shown) [Example E42] | 7.04 | 5.94 | 8.25 | 7.36
5 | CCCc1cc(Nc2ncc(Cl)c(Nc3ccccc3P(C)(C)=O)n2)c(OC)cc1N1CCC(N2CCN(CCC#Cc3cccc4c3CN(C3CCC(=O)NC3=O)C4=O)CC2)CC1 (stereo not shown) [Example E44] | < 5.40 | 5.46 | 8.18 | 7.75
6 | CCc1cc(Nc2ncc(Cl)c(Nc3ccccc3P(C)(C)=O)n2)c(OC)cc1N1CCC2(CCN(CCCCOc3cccc4c3CN(C3CCC(=O)NC3=O)C4=O)CC2)CC1 (stereo not shown) [Example E47] | 6.34 | < 5.40 | 8.02 | 7.43
7 | CCc1cc(Nc2ncc(Cl)c(Nc3ccc4[nH]ncc4c3P(C)(C)=O)n2)c(OC)cc1N1CCC(N2CCN(CCC#Cc3cccc4c3CN(C3CCC(=O)NC3=O)C4=O)CC2)CC1 (stereo not shown) [Example E51] | < 5.40 | 5.96 | 7.85 | 7.24
8 | COc1cc(N2CCC(N3CCN(CCC#Cc4cccc5c4CN(C4CCC(=O)NC4=O)C5=O)CC3)CC2)c(C#N)cc1Nc1ncc(Cl)c(Nc2ccccc2P(C)(C)=O)n1 (stereo not shown) [Example E52] | < 5.40 | 5.98 | 7.82 | 7.38
9 | CCc1cc(Nc2ncc(Cl)c(Nc3ccccc3P(C)(C)=O)n2)c(OC)cc1N1CCC(N2CCN(CCC#Cc3c(F)ccc4c3CN(C3CCC(=O)NC3=O)C4=O)CC2)CC1 (stereo not shown) [Example E54] | 6.45 | 5.93 | 7.69 | 7.29
10 | CCc1cc(Nc2ncc(Cl)c(Nc3ccccc3P(C)(C)=O)n2)c(OC)cc1N1CCC(N2CCN(CCCCOc3ccc4c(c3F)CN(C3CCC(=O)NC3=O)C4=O)CC2)CC1 (stereo not shown) [Example E59] | 5.88 | 5.84 | 7.64 | 7.17
11 | CCc1cc(Nc2ncc(Cl)c(Nc3ccccc3P(C)(C)=O)n2)c(OC)cc1N1CCC2(CC1)CC(N(C)CCCC#Cc1cccc3c1CN(C1CCC(=O)NC1=O)C3=O)C2 (stereo not shown) [Example E60] | < 5.40 | < 5.40 | 7.40 | 7.11
12 | COc1cc(N2CCC3(CCN(CCCC#Cc4cccc5c4CN(C4CCC(=O)NC4=O)C5=O)CC3)CC2)c(C2CC2)cc1Nc1ncc(Cl)c(Nc2ccccc2P(C)(C)=O)n1 (stereo not shown) [Example E62] | < 5.40 | < 5.40 | 7.29 | 7.02
13 | CCc1cc(Nc2nc(Nc3ccccc3P(C)(C)=O)c3cc[nH]c3n2)c(OC)cc1N1CCC(N2CCN(CCCCOc3cccc4c3CN(C3CCC(=O)NC3=O)C4=O)CC2)CC1 (stereo not shown) [Example E64] | < 5.40 | < 5.40 | 7.93 | 7.38
14 | CCc1cc(Nc2ncc(Cl)c(Nc3ccccc3P(C)(C)=O)n2)c(OC)cc1N1CCC(N2CCN(CCOc3cc(F)cc4c3CN(C3CCC(=O)NC3=O)C4=O)CC2)CC1 (stereo not shown) [Example E66] | 5.60 | 5.70 | 7.97 | 7.22
15 | CCc1cc(Nc2ncc(-n3cc(C)cn3)c(Nc3ccccc3P(C)(C)=O)n2)c(OC)cc1N1CCC(N2CCN(CCOc3ccc4c(c3)CN(C3CCC(=O)NC3=O)C4=O)CC2)CC1 (stereo not shown) [Example E68] | < 5.40 | < 5.40 | 7.73 | < 5.40
16 | CCc1cc(Nc2ncc(-c3cnn(C)c3)c(Nc3ccccc3P(C)(C)=O)n2)c(OC)cc1N1CCC(N2CCN([C@H]3C[C@H](Oc4cccc5c4CN(C4CCC(=O)NC4=O)C5=O)C3)CC2)CC1 (stereo partly shown) [Example E70] | 6.57 | 5.90 | 9.15 | < 5.40
17 | CCc1cc(Nc2ncc(Cl)c(Nc3ccccc3P(C)(C)=O)n2)c(OC)cc1N1CCC2(CCN(CCCC#Cc3c(F)ccc4c3CN(C3CCC(=O)NC3=O)C4=O)CC2)CC1 (stereo not shown) [Example E74] | < 5.40 | < 5.40 | 7.42 | 6.80
18 | CCc1cc(Nc2ncc(Cl)c(Nc3ccccc3P(C)(C)=O)n2)c(OC)cc1N1CCC(N2CCc3ccc(Oc4cccc5c4CN(C4CCC(=O)NC4=O)C5=O)cc3C2)CC1 (stereo not shown) [Example E76] | < 5.40 | < 5.40 | 7.52 | 6.83
19 | CCc1cc(Nc2ncc(Cl)c(Nc3ccccc3P(C)(C)=O)n2)c(OC)cc1N1CCC(N2CCC3(CC(Oc4cccc5c4CN(C4CCC(=O)NC4=O)C5=O)C3)C2)CC1 (stereo not shown) [Example E83] | 5.84 | 5.83 | 8.92 | 7.74
20 | CCc1cc(Nc2ncc(Cl)c(Nc3ccccc3P(C)(C)=O)n2)c(OC)cc1N1CCC(N2CCN(C3(C#Cc4cccc5c4CN(C4CCC(=O)NC4=O)C5=O)CC3)CC2)CC1 (stereo not shown) [Example E84] | < 5.40 | 5.71 | 7.60 | 7.07

The remaining lines, values ahead:

Row | pIC50 (BaF3 (EGFR WT)) | pIC50 (A431) | pIC50 (BaF3 (EGFR Del19/C797S)) | pIC50 [1] | SMILES
21 | 5.73 | 5.86 | 7.86 | 7.28 | CCc1cc(Nc2ncc(Cl)c(Nc3ccccc3P(C)(C)=O)n2)c(OC)cc1N1CCC(N2CCN(C3(/C=C\c4cccc5c4CN(C4CCC(=O)NC4=O)C5=O)CC3)CC2)CC1 (stereo not shown) [Example E85]
22 | 5.57 | 5.79 | 8.04 | 7.22 | CCc1cc(Nc2ncc(Cl)c(Nc3ccccc3P(C)(C)=O)n2)c(OC)cc1N1CCC(N2CCN(C(=O)CCCOc3cccc4c3CN(C3CCC(=O)NC3=O)C4=O)CC2)CC1 (stereo not shown) [Example E88]
23 | 5.68 | ≤ 5.43 | 7.88 | 6.85 | CCc1cc(Nc2ncc(Cl)c(Nc3ccccc3P(C)(C)=O)n2)c(OC)cc1N1CCC2(CCN(C(=O)CCCOc3cccc4c3CN(C3CCC(=O)NC3=O)C4=O)CC2)CC1 (stereo not shown) [Example E90]
24 | 6.16 | 5.93 | 7.90 | 7.14 | CCc1cc(Nc2ncc(Cl)c(Nc3ccccc3P(C)(C)=O)n2)c(OC)cc1N1CCC(N2CCN(CCCCOc3cc4c(cc3F)C(=O)N(C3CCC(=O)NC3=O)C4)CC2)CC1 (stereo not shown) [Example E92]
25 | 7.30 | 6.28 | 7.40 | 7.24 | CCc1cc(Nc2ncc(Cl)c(Nc3ccccc3P(C)(C)=O)n2)cc(C#N)c1N1CCC(N2CCN(CCC#Cc3cccc4c3CN(C3CCC(=O)NC3=O)C4=O)CC2)CC1 (stereo not shown) [Example E94]
26 | 5.91 | < 5.40 | 6.29 | 5.95 | COc1cc2c(cc1Nc1ncc(Cl)c(Nc3ccccc3P(C)(C)=O)n1)CCN(C1CCN(C(=O)COc3cccc4c3CN(C3CCC(=O)NC3=O)C4=O)CC1)C2 (stereo not shown) [Example E100]
27 | 5.77 | 5.84 | 8.17 | 7.29 | CCc1cc(Nc2ncc(Cl)c(Nc3ccccc3P(C)(C)=O)n2)c(OC)cc1N1CCC(N2CCN(CCCCOc3cccc4c3CN(C3CCC(=O)NC3=O)C4=O)CC2=O)CC1 (stereo not shown) [Example E101]
28 | 5.64 | < 5.40 | 8.04 | 7.36 | CCc1cc(Nc2ncc(Cl)c(Nc3ccccc3P(C)(C)=O)n2)c(OC)cc1N1CCC2(CCN(C(=O)COc3cccc4c3CN(C3CCC(=O)NC3=O)C4=O)CC2)CC1 (stereo not shown) [Example E104]
29 | 5.83 | 5.71 | 7.98 | 5.69 | CCc1cc(Nc2ncc(C(=O)OC(C)C)c(Nc3ccccc3P(C)(C)=O)n2)c(OC)cc1N1CCC(N2CCN(CCCCOc3cccc4c3CN(C3CCC(=O)NC3=O)C4=O)CC2)CC1 (stereo not shown) [Example E105]
30 | < 5.40 | 5.86 | 7.77 | 6.65 | CCc1cc(Nc2ncc(Cl)c(Nc3ccccc3P(C)(C)=O)n2)c(OC)cc1N1CCC(N2CCN(CCNc3cccc4c3C(=O)N(C3CCC(=O)NC3=O)C4=O)CC2)CC1 (stereo not shown) [Example E106]
31 | < 5.40 | 5.87 | 7.92 | 6.80 | CCc1cc(Nc2ncc(Cl)c(Nc3ccccc3P(C)(C)=O)n2)c(OC)cc1N1CCC(N2CCN(CCCc3cccc4c3CN(C3CCC(=O)NC3=O)C4=O)C(=O)C2)CC1 (stereo not shown) [Example E107]
32 | 5.48 | < 5.40 |  | 7.23 | CCc1cc(Nc2ncc(Cl)c(Nc3ccccc3P(C)(C)=O)n2)c(OC)cc1N1CCC(N2Cc3cc(Oc4cccc5c4CN(C4CCC(=O)NC4=O)C5=O)ccc3C2=O)CC1 (stereo not shown) [Example E211]
